# Assays:
# [1] = tested on: healthy elderly subjects (scopolamine challenge); experiment: N-back test in scopolamine challenge; format: in vivo, human; conditions: for N-back, 0-back accuracy / N-back, 0-back reaction time / N-back, 1-back accuracy / N-back, 2-back accuracy / N-back, 2-back reaction time: vs placebo (95% CI), scopolamine 0.3 mg i.v.
# [2] = tested on: healthy elderly subjects (scopolamine challenge); experiment: Safety assessment: adverse events, vital signs, ECG, laboratory; format: in vivo, human; conditions: scopolamine 0.3 mg i.v.
# [3] = tested on: healthy elderly subjects (scopolamine challenge); experiment: Saccadic eye movements in scopolamine challenge; format: in vivo, human; conditions: for Saccadic inaccuracy / Saccadic reaction time: vs placebo (95% CI), scopolamine 0.3 mg i.v.
# [4] = tested on: healthy elderly subjects (scopolamine challenge); experiment: Adaptive tracking; format: in vivo, human; conditions: for Adaptive tracking: vs placebo (95% CI), scopolamine 0.3 mg i.v.
# [5] = tested on: patients with mild-to-moderate Alzheimer's disease; conditions: cited from earlier work
# Plasma pharmacokinetics = conditions: noncompartmental analysis
# healthy volunteers [6] = conditions: single oral doses; cited from earlier work
# [7] = tested on: healthy elderly subjects (scopolamine challenge); experiment: Simple reaction time task in scopolamine challenge; format: in vivo, human; conditions: scopolamine alone 0.3 mg i.v.
# healthy volunteers [8] = conditions: 0.5 mg intravenously; healthy young volunteers; cited from earlier work
# healthy subjects = conditions: scopolamine alone, previous study; cited from earlier work
# [9] = tested on: healthy elderly subjects (scopolamine challenge); experiment: Body sway meter; format: in vivo, human; conditions: scopolamine alone 0.3 mg i.v.
# [10] = tested on: healthy elderly subjects (scopolamine challenge); experiment: Pharmaco-electroencephalography in scopolamine challenge; format: in vivo, human; conditions: scopolamine alone 0.3 mg i.v.
# [11] = DPZ 2.5 mg + EVP-6124 placebo, N 11
# [12] = DPZ 5.0 mg + EVP-6124 placebo, N 10
# [13] = DPZ placebo + EVP-6124 0.3 mg, N 12
# [14] = DPZ placebo + EVP-6124 1 mg, N 11
# [15] = DPZ placebo + EVP-6124 2 mg, N 12
# [16] = DPZ placebo + EVP-6124 4 mg, N 12
smiles,measurement,setting,value
"COc1cc2c(cc1OC)C(=O)C(CC1CCN(Cc3ccccc3)CC1)C2 (centres unmarked) [DPZ, donepezil, reference compound]","N-back, 0-back accuracy",[1]; DPZ 2.5 mg + EVP-6124 placebo,"0.03 (−0.05, 0.11) P = .4512%"
same,"N-back, 0-back reaction time",[1]; DPZ 2.5 mg + EVP-6124 placebo,"−24 (−48, 1) P = .0615 ms"
same,"N-back, 1-back accuracy",[1]; DPZ 2.5 mg + EVP-6124 placebo,"−0.00 (−0.12, 0.11) P = .9598%"
same,"N-back, 2-back accuracy",[1]; DPZ 2.5 mg + EVP-6124 placebo,"0.04 (−0.08, 0.17) P = .5034%"
same,"N-back, 2-back reaction time",[1]; DPZ 2.5 mg + EVP-6124 placebo,"−27 (−70, 16) P = .2115 ms"
same,"N-back, 0-back accuracy",[1]; DPZ 5 mg + EVP-placebo,"0.04 (−0.02, 0.10) P = .1614%"
same,"N-back, 0-back reaction time",[1]; DPZ 5 mg + EVP-placebo,"−18 (−36, −1) P = .0386 ms"
same,"N-back, 1-back accuracy",[1]; DPZ 5 mg + EVP-placebo,"0.03 (−0.05, 0.11) P = .4286%"
same,"N-back, 2-back accuracy",[1]; DPZ 5 mg + EVP-placebo,"0.02 (−0.08, 0.11) P = .7469%"
same,"N-back, 2-back reaction time",[1]; DPZ 5 mg + EVP-placebo,"35 (−1, 70) P = .0541 ms"
same,"Headache, treatment-related adverse event, subjects n (%)",[2]; [11],1 (9.1%)
same,"Somnolence, treatment-related adverse event, subjects n (%)",[2]; [11],7 (63.6%)
same,"Disturbance in attention, treatment-related adverse event, subjects n (%)",[2]; [12],1 (10.0%)
same,"Dizziness, treatment-related adverse event, subjects n (%)",[2]; [12],6 (60.0%)
same,"Dry mouth, treatment-related adverse event, subjects n (%)",[2]; [12],6 (60.0%)
same,"Headache, treatment-related adverse event, subjects n (%)",[2]; [12],1 (10.0%)
same,"Somnolence, treatment-related adverse event, subjects n (%)",[2]; [12],6 (60.0%)
same,Saccadic inaccuracy,[3]; DPZ 2.5 mg + EVP-6124 placebo,"−1.4 (−2.7, −0.1) P = .0311%"
same,Saccadic reaction time,[3]; DPZ 2.5 mg + EVP-6124 placebo,"−4 (−20, 11) P = .5539 ms"
same,Saccadic inaccuracy,[3]; DPZ 5 mg + EVP-placebo,"0.0 (−0.9, 1.0) P = .9433%"
same,Saccadic reaction time,[3]; DPZ 5 mg + EVP-placebo,"−11 (−20, −2) P = .0190 ms"
same,Adaptive tracking,[4]; DPZ 2.5 mg + EVP-6124 placebo,"1.49 (0.20, 2.77) P = .0247%"
same,Adaptive tracking,[4]; DPZ 5 mg + EVP-placebo,"0.72 (−0.76, 2.20) P = .3297%"
O=C(N[C@H]1CN2CCC1CC2)c1cc2cccc(Cl)c2s1 [EVP-6124],"N-back, 0-back accuracy",[1]; DPZ placebo + EVP-6124 0.3 mg,"0.02 (−0.04, 0.08) P = .5073%"
same,"N-back, 0-back reaction time",[1]; DPZ placebo + EVP-6124 0.3 mg,"8 (−12, 29) P = .4004 ms"
same,"N-back, 1-back accuracy",[1]; DPZ placebo + EVP-6124 0.3 mg,"0.02 (−0.05, 0.10) P = .5558%"
same,"N-back, 2-back accuracy",[1]; DPZ placebo + EVP-6124 0.3 mg,"−0.02 (−0.11, 0.07) P = .6878%"
same,"N-back, 2-back reaction time",[1]; DPZ placebo + EVP-6124 0.3 mg,"−5 (−36, 25) P = .7210 ms"
same,"N-back, 0-back accuracy",[1]; DPZ placebo + EVP-6124 1 mg,"0.04 (−0.03, 0.10) P = .2318%"
same,"N-back, 0-back reaction time",[1]; DPZ placebo + EVP-6124 1 mg,"−17 (−37, 4) P = .1085 ms"
same,"N-back, 1-back accuracy",[1]; DPZ placebo + EVP-6124 1 mg,"0.04 (−0.04, 0.12) P = .3062%"
same,"N-back, 2-back accuracy",[1]; DPZ placebo + EVP-6124 1 mg,"0.01 (−0.08, 0.10) P = .8796%"
same,"N-back, 2-back reaction time",[1]; DPZ placebo + EVP-6124 1 mg,"−3 (−33, 28) P = .8693 ms"
same,"N-back, 0-back accuracy",[1]; DPZ placebo + EVP-6124 2 mg,"0.05 (−0.01, 0.11) P = .0818%"
same,"N-back, 0-back reaction time",[1]; DPZ placebo + EVP-6124 2 mg,"−5 (−25, 15) P = .6209 ms"
same,"N-back, 2-back accuracy",[1]; DPZ placebo + EVP-6124 2 mg,"0.03 (−0.06, 0.13) P = .4557%"
same,"N-back, 2-back reaction time",[1]; DPZ placebo + EVP-6124 2 mg,"1 (−29, 31) P = .9305 ms"
same,"N-back, 0-back reaction time",[1]; DPZ placebo + EVP-6124 4 mg,"−16 (−36, 4) P = .1151 ms"
same,"N-back, 1-back accuracy",[1]; DPZ placebo + EVP-6124 4 mg,"0.05 (−0.03, 0.12) P = .2385%"
same,"N-back, 2-back accuracy",[1]; DPZ placebo + EVP-6124 4 mg,"−0.02 (−0.11, 0.07) P = .7181%"
same,"N-back, 2-back reaction time",[1]; DPZ placebo + EVP-6124 4 mg,"−8 (−39, 22) P = .5733 ms"
same,reason why phase III trials were halted in 2015,[5],gastrointestinal adverse events
same,"Disturbance in attention, treatment-related adverse event, subjects n (%)",[2]; [13],2 (16.7%)
same,"Dizziness, treatment-related adverse event, subjects n (%)",[2]; [13],6 (50.0%)
same,"Dry mouth, treatment-related adverse event, subjects n (%)",[2]; [13],8 (66.7%)
same,"Gait disturbance, treatment-related adverse event, subjects n (%)",[2]; [13],1 (8.3%)
same,"Headache, treatment-related adverse event, subjects n (%)",[2]; [13],1 (8.3%)
same,"Somnolence, treatment-related adverse event, subjects n (%)",[2]; [13],6 (50.0%)
same,"Disturbance in attention, treatment-related adverse event, subjects n (%)",[2]; [14],2 (18.2%)
same,"Dizziness, treatment-related adverse event, subjects n (%)",[2]; [14],3 (27.3%)
same,"Gait disturbance, treatment-related adverse event, subjects n (%)",[2]; [14],1 (9.1%)
same,"Headache, treatment-related adverse event, subjects n (%)",[2]; [14],3 (27.3%)
same,"Somnolence, treatment-related adverse event, subjects n (%)",[2]; [14],5 (45.5%)
same,"Disturbance in attention, treatment-related adverse event, subjects n (%)",[2]; [15],1 (8.3%)
same,"Dizziness, treatment-related adverse event, subjects n (%)",[2]; [15],4 (33.3%)
same,"Dry mouth, treatment-related adverse event, subjects n (%)",[2]; [15],10 (83.3%)
same,"Gait disturbance, treatment-related adverse event, subjects n (%)",[2]; [15],1 (8.3%)
same,"Somnolence, treatment-related adverse event, subjects n (%)",[2]; [15],8 (66.7%)
same,"Disturbance in attention, treatment-related adverse event, subjects n (%)",[2]; [16],2 (16.7%)
same,"Dizziness, treatment-related adverse event, subjects n (%)",[2]; [16],5 (41.7%)
same,"Dry mouth, treatment-related adverse event, subjects n (%)",[2]; [16],10 (83.3%)
same,"Gait disturbance, treatment-related adverse event, subjects n (%)",[2]; [16],3 (25.0%)
same,"Headache, treatment-related adverse event, subjects n (%)",[2]; [16],1 (8.3%)
same,"Somnolence, treatment-related adverse event, subjects n (%)",[2]; [16],7 (58.3%)
same,EVP-6124 pharmacokinetic parameters with or without donepezil,Plasma pharmacokinetics,similar
same,Saccadic inaccuracy,[3]; DPZ placebo + EVP-6124 0.3 mg,"0.6 (−0.2, 1.4) P = .1224%"
same,Saccadic reaction time,[3]; DPZ placebo + EVP-6124 0.3 mg,"−4 (−13, 5) P = .4018 ms"
same,Saccadic inaccuracy,[3]; DPZ placebo + EVP-6124 1 mg,"0.0 (−0.8, 0.8) P = .9525%"
same,Saccadic reaction time,[3]; DPZ placebo + EVP-6124 1 mg,"−2 (−12, 7) P = .5871 ms"
same,Saccadic inaccuracy,[3]; DPZ placebo + EVP-6124 2 mg,"−0.1 (−0.9, 0.6) P = .7196%"
same,Saccadic reaction time,[3]; DPZ placebo + EVP-6124 2 mg,"−3 (−12, 6) P = .4605 ms"
same,Saccadic inaccuracy,[3]; DPZ placebo + EVP-6124 4 mg,"0.3 (−0.5, 1.1) P = .4213%"
same,Saccadic reaction time,[3]; DPZ placebo + EVP-6124 4 mg,"3 (−6, 11) P = .5707 ms"
same,Adaptive tracking,[4]; DPZ placebo + EVP-6124 0.3 mg,"−1.23 (−2.80, 0.34) P = .1200%"
same,Adaptive tracking,[4]; DPZ placebo + EVP-6124 1 mg,"0.03 (−1.56, 1.63) P = .9671%"
same,Adaptive tracking,[4]; DPZ placebo + EVP-6124 2 mg,"−0.83 (−2.33, 0.67) P = .2691%"
same,Adaptive tracking,[4]; DPZ placebo + EVP-6124 4 mg,"−0.26 (−1.76, 1.24) P = .7281%"
same,dose at which effects on the Digit Symbol Substitution Test were most prevalent,healthy volunteers [6],20 mg
CN1[C@@H]2C[C@@H](OC(=O)[C@H](CO)c3ccccc3)C[C@H]1[C@@H]1O[C@@H]12 [scopolamine],performance on SRT,[7],worsened performance
same,performance on N-back,[1]; scopolamine alone 0.3 mg i.v.,worsened performance
same,cognitive effect of scopolamine,healthy volunteers [8],significant cognitive deficits
same,reduction of adaptive tracking scores,healthy subjects,42%
same,performance on saccadic eye movements,[3]; scopolamine alone 0.3 mg i.v.,worsened performance
same,performance on adaptive tracking,[4]; scopolamine alone 0.3 mg i.v.,worsened performance
same,performance on body sway,[9],worsened performance
same,EEG alpha frequency,[10],decrease
same,EEG beta frequency,[10],did not affect
same,EEG delta frequency,[10],increase
same,EEG theta frequency,[10],did not affect
